Measurements taken from ChEMBL document CHEMBL1139973, “Synthesis and structure-activity relationships of taxuyunnanine C derivatives as multidrug resistance modulator in MDR cancer cells” (Bioorg Med Chem Lett, 2007).

How the values were obtained:
[1] = biological target: T1, ATP-dependent translocase ABCB1 (Homo sapiens, UniProt P08183); experiment: Inhibition of Pgp in multidrug-resistant human 2780AD cells assessed as calcein accumulation at 2.5 ug/mL relative to control; assay type: cell-based; design: scale not given: the % may be the effect or the level left; settings: a2780 adr
T1 sequence (P08183 whole entry): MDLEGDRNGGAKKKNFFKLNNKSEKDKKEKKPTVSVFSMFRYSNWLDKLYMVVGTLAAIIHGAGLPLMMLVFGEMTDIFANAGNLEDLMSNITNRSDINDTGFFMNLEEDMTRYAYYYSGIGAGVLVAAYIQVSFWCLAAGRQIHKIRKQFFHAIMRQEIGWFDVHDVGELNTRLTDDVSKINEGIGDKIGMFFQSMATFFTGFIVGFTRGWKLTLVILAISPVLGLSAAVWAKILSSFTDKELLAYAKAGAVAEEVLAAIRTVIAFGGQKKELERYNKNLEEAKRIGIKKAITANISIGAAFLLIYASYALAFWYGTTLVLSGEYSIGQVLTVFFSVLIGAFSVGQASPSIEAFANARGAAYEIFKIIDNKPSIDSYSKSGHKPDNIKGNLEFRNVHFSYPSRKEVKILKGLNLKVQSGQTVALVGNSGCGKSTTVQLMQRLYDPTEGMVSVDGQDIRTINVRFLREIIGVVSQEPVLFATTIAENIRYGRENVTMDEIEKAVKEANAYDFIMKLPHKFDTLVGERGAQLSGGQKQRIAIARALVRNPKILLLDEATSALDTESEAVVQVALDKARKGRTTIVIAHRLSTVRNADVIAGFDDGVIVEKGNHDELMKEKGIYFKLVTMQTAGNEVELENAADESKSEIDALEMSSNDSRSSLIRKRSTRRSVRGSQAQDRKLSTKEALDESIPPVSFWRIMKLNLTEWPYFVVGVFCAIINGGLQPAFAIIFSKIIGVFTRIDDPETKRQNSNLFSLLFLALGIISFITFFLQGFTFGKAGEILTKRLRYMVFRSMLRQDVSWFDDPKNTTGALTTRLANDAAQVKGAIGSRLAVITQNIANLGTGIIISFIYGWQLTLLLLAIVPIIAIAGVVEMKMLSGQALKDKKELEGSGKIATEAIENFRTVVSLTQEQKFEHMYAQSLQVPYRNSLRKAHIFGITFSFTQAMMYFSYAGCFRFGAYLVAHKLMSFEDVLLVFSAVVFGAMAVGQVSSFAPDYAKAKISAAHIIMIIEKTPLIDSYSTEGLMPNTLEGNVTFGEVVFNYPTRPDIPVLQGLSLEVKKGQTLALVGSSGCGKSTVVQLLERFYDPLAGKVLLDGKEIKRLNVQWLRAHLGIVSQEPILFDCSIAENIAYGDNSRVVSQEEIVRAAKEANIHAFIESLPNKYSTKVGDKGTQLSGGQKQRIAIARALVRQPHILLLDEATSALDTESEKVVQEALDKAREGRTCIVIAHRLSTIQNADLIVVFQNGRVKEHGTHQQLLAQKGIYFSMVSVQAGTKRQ

[2] = biological target: T1, ATP-dependent translocase ABCB1; experiment: Inhibition of Pgp in multidrug-resistant human 2780AD cells assessed as calcein accumulation at 0.25 ug/mL relative to control; assay type: cell-based; design: scale not given: the % may be the effect or the level left; settings: a2780 adr
[3] = tested on: HepG2; experiment: Growth inhibition of human HepG2 cells; assay type: functional, cell-based
[4] = Growth inhibition of human WI38 cells; assay type: cell-based; settings: WI-38
[5] = tested on: WI-38 VA13; experiment: Growth inhibition of human VA13 cells; assay type: functional, cell-based
[6] = biological target: T1, ATP-dependent translocase ABCB1; experiment: Inhibition of Pgp in multidrug-resistant human 2780AD cells assessed as calcein accumulation at 25 ug/mL relative to control; assay type: cell-based; design: scale not given: the % may be the effect or the level left; settings: a2780 adr
[7] = biological target: T1, ATP-dependent translocase ABCB1; experiment: Inhibition of Pgp in multidrug-resistant human 2780AD cells assessed as vincristine accumulation at 10 ug/mL relative to control; assay type: cell-based; design: scale not given: the % may be the effect or the level left; settings: a2780 adr
[8] = biological target: T1, ATP-dependent translocase ABCB1; experiment: Inhibition of Pgp in multidrug-resistant human 2780AD cells assessed as vincristine accumulation at 1.0 ug/mL relative to verapamil; assay type: cell-based; design: scale not given: the % may be the effect or the level left; settings: a2780 adr
[9] = biological target: T1, ATP-dependent translocase ABCB1; experiment: Inhibition of Pgp in multidrug-resistant human 2780AD cells assessed as vincristine accumulation at 1.0 ug/mL relative to control; assay type: cell-based; design: scale not given: the % may be the effect or the level left; settings: a2780 adr
[10] = biological target: T1, ATP-dependent translocase ABCB1; experiment: Inhibition of Pgp in multidrug-resistant human 2780AD cells assessed as vincristine accumulation at 10 ug/mL relative to verapamil; assay type: cell-based; design: scale not given: the % may be the effect or the level left; settings: a2780 adr
[11] = biological target: T1, ATP-dependent translocase ABCB1; experiment: Inhibition of Pgp in multidrug-resistant human 2780AD cells assessed as vincristine accumulation at 0.1 ug/mL relative to verapamil; assay type: cell-based; design: scale not given: the % may be the effect or the level left; settings: a2780 adr
[12] = biological target: T1, ATP-dependent translocase ABCB1; experiment: Inhibition of Pgp in multidrug-resistant human 2780AD cells assessed as vincristine accumulation at 0.1 ug/mL relative to control; assay type: cell-based; design: scale not given: the % may be the effect or the level left; settings: a2780 adr

Activity [1] [%] | Activity [2] [%] | IC50 [3] [µM] | Activity [6] [%] | Activity [7] [%] | Activity [8] [%] | Activity [9] [%] | Activity [10] [%] | Activity [11] [%] | Activity [12] [%] | Compound | IC50 [4] [µM] | IC50 [5] [µM]
88 | 94 | 16.6 | 111 |  |  |  |  |  |  | C=C1[C@@H](OC(C)=O)CC[C@@]2(C)C[C@H](OC(C)=O)C3=C(C)C[C@H](OC(=O)CCCC)[C@@H]([C@@H](OC(C)=O)[C@H]12)C3(C)C | > 183 | 56.7
103 | 102 | > 154 | 125 |  |  |  |  |  |  | C=C1[C@@H](OC(C)=O)CC[C@@]2(C)[C@@H](OC(=O)/C=C/c3ccccc3)[C@H](OC(C)=O)C3=C(C)C[C@H](OC(C)=O)[C@@H]([C@@H](OC(C)=O)[C@H]12)C3(C)C | 151 | > 154
96 | 98 | 51.9 | 125 |  |  |  |  |  |  | C=C1[C@@H](OC(C)=O)CC[C@@]2(C)C[C@H](OC(C)=O)C3=C(C)C[C@H](OC(C)=O)[C@@H]([C@@H](OC(=O)c4ccccc4)[C@H]12)C3(C)C | 125 | 175
86 | 100 | 41.7 | 119 |  |  |  |  |  |  | C=C1[C@@H](OC(C)=O)CC[C@@]2(C)C[C@H](OC(C)=O)C3=C(C)C[C@H](OC(=O)C(C)CC)[C@@H]([C@@H](OC(C)=O)[C@H]12)C3(C)C (stereo partly drawn) | > 183 | 61.1
141 | 130 | 18.5 | 127 |  |  |  |  |  |  | C=C1[C@@H](OC(C)=O)CC[C@@]2(C)C[C@H](OC(C)=O)C3=C(C)C[C@H](OC(C)=O)[C@@H]([C@@H](OC(C)=O)[C@H]12)C3(C)C [TAXUYUNNANINE C] | 130 | 53.1
98 | 97 | 18.5 | 114 |  |  |  |  |  |  | C=C1[C@@H](OC(C)=O)CC[C@@]2(C)C[C@H](OC(C)=O)C3=C(C)C[C@H](OC(=O)CCC)[C@@H]([C@@H](OC(C)=O)[C@H]12)C3(C)C | 73.4 | 17.2
139 | 133 | 28 | 148 |  |  |  |  |  |  | C=C1[C@@H](OC(C)=O)CC[C@@]2(C)C[C@H](OC(C)=O)C3=C(C)C[C@H](OC(=O)C(C)C)[C@@H]([C@@H](OC(C)=O)[C@H]12)C3(C)C | > 188 | 90.9
105 | 89 | 10.3 | 91 |  |  |  |  |  |  | C=C1[C@@H](OC(C)=O)CC[C@@]2(C)C[C@H](OC(C)=O)C3=C(C)CC[C@@H]([C@@H](OC(C)=O)[C@H]12)C3(C)C | 8.93 | 12.2
98 | 94 | 75.2 | 110 |  |  |  |  |  |  | C=C1[C@@H](OC(C)=O)C[C@H](O)[C@@]2(C)C[C@H](OC(C)=O)C3=C(C)C[C@H](OC(=O)C(C)CC)[C@@H]([C@@H](OC(C)=O)[C@H]12)C3(C)C (stereo partly drawn) | 81.6 | 79.1
102 | 97 | 80.4 | 130 |  |  |  |  |  |  | C=C1[C@@H](OC(C)=O)C[C@H](OC(=O)/C=C/c2ccccc2)[C@@]2(C)C[C@H](OC(C)=O)C3=C(C)C[C@H](OC(=O)C(C)C(C)O)[C@@H]([C@@H](OC(C)=O)[C@H]12)C3(C)C (stereo partly drawn) | 62.4 | 49.9
104 | 87 | 153 | 107 |  |  |  |  |  |  | C=C1[C@@H](OC(C)=O)C[C@H](O)[C@@]2(C)C[C@H](OC(C)=O)C3=C(C)C[C@H](OC(=O)C(C)C(C)O)[C@@H]([C@@H](OC(C)=O)[C@H]12)C3(C)C (stereo partly drawn) | 140 | > 173
107 | 90 | 144 | 133 |  |  |  |  |  |  | C=C1[C@@H](OC(C)=O)CC[C@@]2(C)C[C@H](OC(C)=O)C3=C(C)C[C@H](OC(=O)c4ccccc4)[C@@H]([C@@H](OC(C)=O)[C@H]12)C3(C)C | > 176 | > 176
98 | 96 | > 144 | 102 |  |  |  |  |  |  | C=C1[C@@H](OC(C)=O)C[C@H](OC(=O)/C=C/c2ccccc2)[C@@]2(C)C[C@H](OC(C)=O)C3=C(C)C[C@H](OC(=O)C(C)CC)[C@@H]([C@@H](OC(C)=O)[C@H]12)C3(C)C (stereo partly drawn) | > 144 | > 144
94 | 81 | 18.5 | 168 |  |  |  |  |  |  | C=C1[C@@H](OC(C)=O)CC[C@@]2(C)C[C@H](OC(C)=O)C3=C(C)C[C@H](OC(=O)C(C)C(C)O)[C@@H]([C@@H](OC(C)=O)[C@H]12)C3(C)C (stereo partly drawn) [YUNNANXANE] | 79.4 | 9.29
99 | 99 | 122 | 111 | 259 | 84 | 144 | 74 | 89 | 101 | C=C1[C@@H](OC(C)=O)CC[C@@]2(C)C[C@H](OC(C)=O)C3=C(C)C[C@H](OC(C)=O)[C@@H]([C@@H](O)[C@H]12)C3(C)C | 130 | 104
101 | 102 | 128 | 110 | 168 | 58 | 108 | 37 | 79 | 86 | C=C1[C@@H](OC(C)=O)CC[C@@]2(C)[C@@H](O)[C@H](OC(C)=O)C3=C(C)C[C@H](OC(C)=O)[C@@H]([C@@H](OC(C)=O)[C@H]12)C3(C)C | 129 | > 192
113 | 109 | 15.3 | 113 | 497 | 102 | 190 | 110 | 105 | 114 | C=C1[C@@H](OC(C)=O)CC[C@@]2(C)C[C@H](OC(=O)/C=C/c3ccccc3)C3=C(C)C[C@H](O)[C@@H]([C@@H](OC(C)=O)[C@H]12)C3(C)C | 71.7 | 11.5
95 | 102 | 9.95 | 121 |  |  |  |  |  |  | C=C1[C@@H](OC(=O)/C=C/c2ccccc2)CC[C@@]2(C)C[C@H](OC(C)=O)C3=C(C)C[C@H](OC(C)=O)[C@@H]([C@@H](OC(C)=O)[C@H]12)C3(C)C | 99 | 125
118 | 118 | 183 | 141 |  |  |  |  |  |  | C=C1[C@@H](O)CC[C@@]2(C)C[C@H](OC(C)=O)C3=C(C)C[C@H](OC(C)=O)[C@@H]([C@@H](OC(C)=O)[C@H]12)C3(C)C | 149 | 105
98 | 104 | 86.4 | 119 |  |  |  |  |  |  | C=C1[C@@H](OC(C)=O)CC[C@@]2(C)C[C@H](OC(C)=O)C3=C(C)C[C@H](OC(=O)CC)[C@@H]([C@@H](OC(C)=O)[C@H]12)C3(C)C | > 193 | 93.7
